Data taken from PMC10823471, “Ligand-Based Competition Binding by Real-Time ^19F NMR in Human Cells” (Journal of Medicinal Chemistry, 2024).

Biological target: T1, Hsp90α N-terminal domain (Hsp90N) (Homo sapiens, UniProt P07900)
T1 construct: gene HSP90AA1
Experiment: competition binding by real-time in-cell […] NMR against spy ligand […] (Kd back-calculated)
Assay type: cell-based

`CCNC(=O)c1cc2c(-c3cc(OCCN(CC)CC)c(Cl)cc3Cl)nc(N)nc2s1` [compound 5] was tested, and the Kd was 0.6 ± 0.1 nM.
